Source: ChEMBL document CHEMBL1201862, “PubChem BioAssay data set” (2004)
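Protocol summary: plate cells (96-well), add compound at 5 concentrations, incubate 48 h, interpolate endpoints linearly. Here, GI50 denotes the concentration required for 50% inhibition of growth.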 The source made the active and inactive calls. No stated cut-off is given here; in the data, active = GI50 up to about 1.1 µM and inactive = higher.

What was measured:
Experiment in all cases: NCI tumour cell line growth inhibition, 48 h
OVCAR-8 = test system: OVCAR-8
TK-10 = test system: TK-10
UACC-257 = test system: UACC-257
HL-60 = test system: HL-60
U-251 = test system: U-251
IGROV-1 = test system: IGROV-1
M14 = test system: M14
A549 = test system: A549
SNB-19 = test system: SNB-19
KM12 = test system: KM12
UACC-62 = test system: UACC-62
NCI-H460 = test system: NCI-H460
OVCAR-5 = test system: OVCAR-5
NCI-H23 = test system: NCI-H23
DMS-114 = test system: DMS-114
HT-29 = test system: HT-29
HCT-116 = test system: HCT-116
UO-31 = test system: UO-31
M19-MEL = test system: M19-MEL
RXF 631 = test system: RXF 631
SR = test system: SR
SK-OV-3 = test system: SK-OV-3
MOLT-4 = test system: MOLT-4
SK-MEL-28 = test system: SK-MEL-28
HOP-62 = test system: HOP-62
A498 = test system: A498
NCI-H522 = test system: NCI-H522
DMS-273 = test system: DMS-273
HOP-92 = test system: HOP-92
SF-295 = test system: SF-295
CCRF-CEM = test system: CCRF-CEM
RXF 393 = test system: RXF 393
ACHN = test system: ACHN
EKVX = test system: EKVX
SNB-78 = test system: SNB-78
DLD-1 = test system: DLD-1
786-0 = test system: 786-0
NCI-H226 = test system: NCI-H226
OVCAR-4 = test system: OVCAR-4
LOX IMVI = test system: LOX IMVI
SK-MEL-5 = test system: SK-MEL-5
SF-268 = test system: SF-268
SNB-75 = test system: SNB-75
LXFL 529 = test system: LXFL 529
COLO 205 = test system: COLO 205
KM-20L2 = test system: KM-20L2
K562 = test system: K562
RPMI-8226 = test system: RPMI-8226
OVCAR-3 = test system: OVCAR-3
HCT-15 = test system: HCT-15
CAKI-1 = test system: CAKI-1
Malme-3M = test system: Malme-3M
SW-620 = test system: SW-620

## CCN(CC)CSc1nc2ccccc2o1
OVCAR-8
  GI50: > 100 µM (inactive)
TK-10
  GI50: > 100 µM (inactive)
UACC-257
  GI50: > 100 µM (inactive)
HL-60
  GI50: > 100 µM (inactive)
U-251
  GI50: > 100 µM (inactive)
IGROV-1
  GI50: > 100 µM (inactive)
M14
  GI50: > 100 µM (inactive)
A549
  GI50: > 100 µM (inactive)
SNB-19
  GI50: > 100 µM (inactive)
KM12
  GI50: > 100 µM (inactive)
UACC-62
  GI50: > 100 µM (inactive)
NCI-H460
  GI50: > 100 µM (inactive)
OVCAR-5
  GI50: > 100 µM (inactive)
NCI-H23
  GI50: > 100 µM (inactive)
DMS-114
  GI50: > 100 µM (inactive)
HT-29
  GI50: > 100 µM (inactive)
HCT-116
  GI50: > 100 µM (inactive)
UO-31
  GI50: > 100 µM (inactive)
M19-MEL
  GI50: > 100 µM (inactive)
RXF 631
  GI50: > 100 µM (inactive)
SR
  GI50: > 100 µM (inactive)
SK-OV-3
  GI50: > 100 µM (inactive)
MOLT-4
  GI50: > 100 µM (inactive)
SK-MEL-28
  GI50: > 100 µM (inactive)
HOP-62
  GI50: > 100 µM (inactive)
A498
  GI50: > 100 µM (inactive)
NCI-H522
  GI50: > 100 µM (inactive)
DMS-273
  GI50: > 100 µM (inactive)
HOP-92
  GI50: > 100 µM (inactive)
SF-295
  GI50: > 100 µM (inactive)
CCRF-CEM
  GI50: > 100 µM (inactive)
RXF 393
  GI50: > 100 µM (inactive)
ACHN
  GI50: > 100 µM (inactive)
EKVX
  GI50: > 100 µM (inactive)
SNB-78
  GI50: > 100 µM (inactive)

## CN1C(c2ccccc2)CC(=Nc2ccccc2)CC1c1ccccc1 (configuration not stated)
DLD-1
  GI50: 10.6 µM (inactive)
OVCAR-8
  GI50: 6.97 µM (inactive)
786-0
  GI50: 14.2 µM (inactive)
TK-10
  GI50: 19.2 µM (inactive)
NCI-H226
  GI50: 11.7 µM (inactive)
UACC-257
  GI50: 10.4 µM (inactive)
OVCAR-4
  GI50: 10.4 µM (inactive)
HL-60
  GI50: 2.61 µM (inactive)
U-251
  GI50: 6.82 µM (inactive)
LOX IMVI
  GI50: 4.48 µM (inactive)
SK-MEL-5
  GI50: 10.9 µM (inactive)
IGROV-1
  GI50: 12.6 µM (inactive)
M14
  GI50: 13.5 µM (inactive)
A549
  GI50: 11.5 µM (inactive)
SNB-19
  GI50: 14.3 µM (inactive)
SF-268
  GI50: 10.8 µM (inactive)
SNB-75
  GI50: 16.7 µM (inactive)
NCI-H460
  GI50: 13.5 µM (inactive)
LXFL 529
  GI50: 4.46 µM (inactive)
NCI-H23
  GI50: 15.6 µM (inactive)
COLO 205
  GI50: 10.7 µM (inactive)
HT-29
  GI50: 8.67 µM (inactive)
HCT-116
  GI50: 4.91 µM (inactive)
UO-31
  GI50: 20.7 µM (inactive)
M19-MEL
  GI50: 4.58 µM (inactive)
KM-20L2
  GI50: 13.3 µM (inactive)
RXF 631
  GI50: 20.5 µM (inactive)
SR
  GI50: 10.9 µM (inactive)
SK-OV-3
  GI50: 2.95 µM (inactive)
MOLT-4
  GI50: 7.13 µM (inactive)
K562
  GI50: 13.2 µM (inactive)
SK-MEL-28
  GI50: 10.8 µM (inactive)
HOP-62
  GI50: 18 µM (inactive)
NCI-H522
  GI50: 4.65 µM (inactive)
DMS-273
  GI50: 8.79 µM (inactive)
RPMI-8226
  GI50: 2.98 µM (inactive)
OVCAR-3
  GI50: 8.93 µM (inactive)
HOP-92
  GI50: 7.78 µM (inactive)
SF-295
  GI50: 15.6 µM (inactive)
HCT-15
  GI50: 16.1 µM
CCRF-CEM
  GI50: 16.2 µM (inactive)
RXF 393
  GI50: 16.6 µM (inactive)
CAKI-1
  GI50: 17.5 µM (inactive)
EKVX
  GI50: 16.2 µM (inactive)
Malme-3M
  GI50: 10.8 µM (inactive)
SW-620
  GI50: 10.8 µM (inactive)
SNB-78
  GI50: 15 µM (inactive)
